Assays:
Aβ1-40 = experiment: Measurement of Aβ1-40 in culture medium of 7W WT APP751 CHO cells by ELISA; format: cell-based, Chinese hamster; settings: Cricetulus griseus; Table 1; 5 μM test compound; CHO cells stably transfected with human APP751; culture medium, ELISA; control DMSO; 0 = no detectable amount
Aβ1-42 = experiment: Measurement of Aβ1-42 in culture medium of 7W WT APP751 CHO cells by ELISA; format: cell-based, Chinese hamster; settings: Cricetulus griseus; Table 1; 5 μM test compound; CHO cells stably transfected with human APP751; culture medium, ELISA; control DMSO; 0 = no detectable amount; read-out: Aβ1-42 (% of control)
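Also: 5 µM test compound but RI-coded compounds at 10 µM for 24 hours.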

Compound	activity at 5 µM (Aβ1-40)	activity at 5 µM (Aβ1-42)
CCc1ccc(C2C(C(=O)OCc3ccc(OC)cc3)=C(C)NC3=C2C(=O)CCC3)cc1 (stereo not shown) [ST016983, (4-methoxyphenyl)methyl 4-(4-ethylphenyl)-2-methyl-5-oxo-1,4,6,7,8-pentahydroquinoline-3-carboxylate]	51.6%	72.6%
CCCOc1ccccc1C1C(C(=O)OCC(C)C)=C(C)NC2=C1C(=O)CC(c1ccccc1)C2 (stereo not shown) [ST016984, 2-methylpropyl 2-methyl-5-oxo-7-phenyl-4-(2-propoxyphenyl)-1,4,6,7,8-pentahydroquinoline-3-carboxylate]	25.4%	56.2%
COC(=O)C1=C(C)NC2=C(C(=O)CC(c3ccc(OC)cc3)C2)C1c1cccc(OC)c1OC (stereo not shown) [ST016999, methyl 4-(2,3-dimethoxyphenyl)-7-(4-methoxyphenyl)-2-methyl-5-oxo-1,4,6,7,8-pentahydroquinoline-3-carboxylate]	67.3%	82.8%
CCOc1ccc(C2C(C(=O)OC(C)C)=C(C)NC3=C2C(=O)CC(c2ccc(OC)cc2)C3)cc1 (stereo not shown) [ST017011, methylethyl 4-(4-ethoxyphenyl)-7-(4-methoxyphenyl)-2-methyl-5-oxo-1,4,6,7,8-pentahydroquinoline-3-carboxylate]	45.7%	74%
COc1ccc(COC(=O)C2=C(C)NC3=C(C(=O)CC(C)(C)C3)C2c2ccc(O)c(OC)c2)cc1 (stereo not shown) [ST017025, (4-methoxyphenyl)methyl 4-(4-hydroxy-3-methoxyphenyl)-2,7,7-trimethyl-5-oxo-1,4,6,7,8-pentahydroquinoline-3-carboxylate]	30.1%	32.2%
CCCOc1ccccc1C1C(C(=O)OCC(C)C)=C(C)NC2=C1C(=O)CC(c1ccc(Cl)cc1)C2 (stereo not shown) [ST017026, 2-methylpropyl 7-(4-chlorophenyl)-2-methyl-5-oxo-4-(2-propoxyphenyl)-1,4,6,7,8-pentahydroquinoline-3-carboxylate]	40.6%	80.6%
COCCOC(=O)C1=C(C)NC2=C(C(=O)CC(c3ccccc3)C2)C1c1ccc([N+](=O)[O-])cc1 (stereo not shown) [ST017027, 2-methoxyethyl 2-methyl-4-(4-nitrophenyl)-5-oxo-7-phenyl-1,4,6,7,8-pentahydroquinoline-3-carboxylate]	35.1%	82.1%
CCOc1ccccc1C1C(C(=O)OCC(C)C)=C(C)NC2=C1C(=O)CC(c1ccc(Cl)cc1)C2 (stereo not shown) [ST017038, 2-methyipropyl 7-(4-chlorophenyl)-4-(2-ethoxyphenyl)-2-methyl-5-oxo-1,4,6,7,8-pentahydroquinoline-3-carboxylate]	42.7%	81.9%
COc1cc(Br)c(C2C(C#N)=C(C)NC3=C2C(=O)CC(c2ccc(Cl)cc2)C3)cc1OC (stereo not shown) [ST017045, 4-(2-bromo-4,5-dimethoxyphenyl)-7-(4-chlorophenyl)-2-methyl-5-oxo-1,4,6,7,8-pentahydroquinoline-3-carbonitrile]	42.6%	46%
COc1cc(C2C(C(=O)OC3CCCCC3)=C(C)NC3=C2C(=O)CC(c2ccccc2)C3)cc(Cl)c1O (stereo not shown) [ST017050, cyclohexyl 4-(3-chloro-4-hydroxy-5-methoxyphenyl)-2-methyl-5-oxo-7-phenyl-1,4,6,7,8-pentahydroquinoline-3-carboxylate]	39.6%	22.2%
COc1ccc(COC(=O)C2=C(C)NC3=C(C(=O)CC(C)(C)C3)C2c2cc3c(cc2[NH+]([O-])O)OCO3)cc1 (stereo not shown) [ST017054, (4-methoxyphenyl)methyl 2,7,7-trimethyl-4-(6-nitro(2H-benzo[d]1,3-dioxolan-5-yl))-5-oxo-1,4,6,7,8-pentahydroquinoline-3-carboxylate]	46.5%	9.54%
CCOc1cc(C2C(C(=O)OCCOC)=C(C)NC3=C2C(=O)CC(c2ccccc2)C3)cc(Br)c1O (stereo not shown) [ST017060, 2-methoxyethyl4-(3-bromo-5-ethoxy-4-hydroxyphenyl)-2-methyl-5-oxo-7-phenyl-1,4,6,7,8-pentahydroquinoline-3-carboxylate]	39%	61.7%
COc1ccc(C2CC(=O)C3=C(C2)NC(C)=C(C(=O)OC(C)C)C3c2ccc(F)cc2)cc1 (stereo not shown) [ST017066, methylethyl 4-(4-fluorophenyl)-7-(4-methoxyphenyl)-2-methyl-5-oxo-1,4,6,7,8-pentahydroquinoline-3-carboxylate]	24.9%	57.4%
CC1=C(C(=O)OCC(C)C)C(c2ccc(Cl)cc2)C2=C(CC(c3ccc(Cl)cc3)CC2=O)N1 (stereo not shown) [ST017070, 2-methylpropyl 4,7-bis(4-chlorophenyl)-2-methyl-5-oxo-1,4,6,7,8-pentahydroquinoline-3-carboxylate]	55.4%	89.1%
CCOC(=O)C1=C(C)NC2=C(C(=O)CC(c3ccc(OC)cc3)C2)C1c1ccc(OCc2ccccc2)cc1 (stereo not shown) [ST017078, ethyl 7-(4-methoxyphenyl)-2-methyl-5-oxo-4-[4-(phenylmethoxy)phenyl]-1,4,6,7,8-pentahydroquinoline-3-carboxylate]	51.8%	49.4%
CC1=C(C(=O)OCCOc2ccccc2)C(c2ccncc2)C2=C(CC(c3ccccc3)CC2=O)N1 (stereo not shown) [ST017084, 2-phenoxyethyl 2-methyl-5-oxo-7-phenyl-4-(4-pyridyl)-1,4,6,7,8-pentahydroquinoline-3-carboxylate]	54.3%	84.7%
CCC(C)OC(=O)C1=C(C)NC2=C(C(=O)CC(c3ccc(Cl)cc3)C2)C1c1ccc(Cl)cc1 (stereo not shown) [ST017089, methylpropyl 4,7-bis(4-chlorophenyl)-2-methyl-5-oxo-1,4,6,7,8-pentahydroquinoline-3-carboxylate]	26.9%	82.5%
CCC(C)OC(=O)C1=C(C)NC2=C(C(=O)CC(c3ccc(Cl)cc3)C2)C1c1cc(OC)c(OC)c(OC)c1 (stereo not shown) [ST017091, methylpropyl 7-(4-chlorophenyl)-2-methyl-5-oxo-4-(3,4,5-trimethoxyphenyl)-1,4,6,7,8-pentahydroquinoline-3-carboxylate]	65.7%	91%
CCc1ccc(C2C(C(=O)OC(C)CC)=C(C)NC3=C2C(=O)CC(c2ccc(OC)cc2)C3)cc1 (stereo not shown) [ST017092, methylpropyl 4-(4-ethylphenyl)-7-(4-methoxyphenyl)-2-methyl-5-oxo-1,4,6,7,8-pentahydroquinoline-3-carboxylate]	41.3%	30.9%
CCCOc1ccc(C2C(C(=O)OC(C)CC)=C(C)NC3=C2C(=O)CC(c2ccc(Cl)cc2)C3)cc1 (stereo not shown) [ST017093, methylpropyl 7-(4-chlorophenyl)-2-methyl-5-oxo-4-(4-propoxyphenyl)-1,4,6,7,8-pentahydroquinoline-3-carboxylate]	46.8%	95%
COCCOC(=O)C1=C(C)NC2=C(C(=O)CC(c3ccc(OC)cc3)C2)C1c1ccc2c(c1)OCO2 (stereo not shown) [ST017094, 2-methoxyethyl 4-(2H-benzo[3,4-d]1,3-dioxolen-5-yl)-7-(4-methoxyphenyl)-2-methyl-5-oxo-1,4,6,7,8-pentahydroquinoline-3-carboxylate]	68.9%	73.8%
CCC(C)OC(=O)C1=C(C)NC2=C(C(=O)CC(c3ccc(Cl)cc3)C2)C1c1ccc(Cl)c(Cl)c1 (stereo not shown) [ST017095, methylpropyl 4-(3,4-dichlorophenyl)-7-(4-chlorophenyl)-2-methyl-5-oxo-1,4,6,7,8-pentahydroquinoline-3-carboxylate]	61.3%	37.1%
COCCOC(=O)C1=C(C)NC2=C(C(=O)CC(c3ccc(OC)cc3)C2)C1c1cccc(OC)c1 (stereo not shown) [ST017097, 2-methoxyethyl 4-(3-methoxyphenyl)-7-(4-methoxyphenyl)-2-methyl-5-oxo-1,4,6,7,8-pentahydroquinoline-3-carboxylate]	68.2%	80.9%
COCCOC(=O)C1=C(C)NC2=C(C(=O)CC(c3ccc(OC)cc3)C2)C1c1ccc(Br)cc1 (stereo not shown) [ST017099, 2-methoxyethyl 4-(4-bromophenyl)-7-(4-methoxyphenyl)-2-methyl-5-oxo-1,4,6,7,8-pentahydroquinoline-3-carboxylate]	84.5%	57%
CCSCCOC(=O)C1=C(C)NC2=C(C(=O)CCC2)C1c1ccc(C(=O)OC)cc1 (stereo not shown) [ST017106, methyl 4-{3-[(2-ethylthioethyl)oxycarbonyl]-2-methyl-5-oxo-4-1,4,6,7,8-pentahydroquinolyl}benzoate]	36.8%	0%
CCSCCOC(=O)C1=C(C)NC2=C(C(=O)CCC2)C1c1ccc(OCCO)c(OC)c1 (stereo not shown) [ST017113, 2-ethylthioethyl 4-[4-(2-hydroxyethoxy)-3-methoxyphenyl]-2-methyl-5-oxo-1,4,6,7,8-pentahydroquinoline-3-carboxylate]	82.6%	74.1%
CCCOc1ccc(C2C(C(=O)OCCSCC)=C(C)NC3=C2C(=O)CC(C)(C)C3)cc1OC (stereo not shown) [ST017116, 2-ethylthioethyl 4-(3-methoxy-4-propoxyphenyl)-2,7,7-trimethyl-5-oxo-1,4,6,7,8-pentahydroquinoline-3-carboxylate]	43.5%	43%
CCOc1cc(C2C(C(=O)OCC(C)C)=C(C)NC3=C2C(=O)CC(c2ccc(Cl)cc2)C3)ccc1O (stereo not shown) [ST017117, 2-methylpropyl 7-(4-chlorophenyl)-4-(3-ethoxy-4-hydroxyphenyl)-2-methyl-5-oxo-1,4,6,7,8-pentahydroquinoline-3-carboxylate]	25.7%	81.7%
COc1ccc(C2CC(=O)C3=C(C2)NC(C)=C(C(=O)OCc2ccccc2)C3c2ccc3c(c2)OCO3)cc1 (stereo not shown) [ST017133, phenylmethyl 4-(2H-benzo[3,4-d]1,3-dioxolen-5-yl)-7-(4-methoxyphenyl)-2-methyl-5-oxo-1,4,6,7,8-pentahydroquinoline-3-carboxylate]	39.2%	79.2%

Source: patent US20100119599A1 (ARCHER PHARMACEUTICALS, INC., priority 2006, published 2010)
